# Experimental data from patent US8497083B2, “Fructosyl amino acid oxidase” (priority 2009, dated 2013).
# Numbering of substitutions follows the chain as printed.
# Experiments:
# [1] = biological target: T1, fructosyl amino acid oxidase from Pichia sp. N1-1 (N1-1 FAOD), wild type, SEQ ID NO: 2 (Pichia sp. N1-1, UniProt Q3L8U0); test: Dehydrogenase activity kinetics (mPMS/DCIP), N1-1 FAOD wild type; format: biochemical; details: mPMS/DCIP over 4AA/TODB/POD
# T1 construct: 427 aa
# T1 sequence (Q3L8U0 1-427): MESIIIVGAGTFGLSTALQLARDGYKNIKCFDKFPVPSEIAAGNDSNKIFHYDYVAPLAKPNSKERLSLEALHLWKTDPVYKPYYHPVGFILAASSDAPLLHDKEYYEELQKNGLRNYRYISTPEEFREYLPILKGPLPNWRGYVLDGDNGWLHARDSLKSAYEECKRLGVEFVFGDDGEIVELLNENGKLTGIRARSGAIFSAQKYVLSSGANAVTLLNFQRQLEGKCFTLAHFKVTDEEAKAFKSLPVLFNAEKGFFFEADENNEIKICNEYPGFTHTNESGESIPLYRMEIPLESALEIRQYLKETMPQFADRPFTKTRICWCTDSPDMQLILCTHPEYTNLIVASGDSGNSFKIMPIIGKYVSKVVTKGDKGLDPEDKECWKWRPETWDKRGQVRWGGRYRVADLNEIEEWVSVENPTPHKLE
# Text: (§1) As used herein, “dehydrogenase activity” is an enzymatic activity (Vmax) of the fructosyl amino acid oxidase to catalyze oxidation of fructosyl amino acid to generate 2-keto-D-glucose and the corresponding amino acid while utilizing an electron mediator other than oxygen as an electron acceptor. The dehydrogenase activity may be assayed by measuring the amount of electrons transferred to the mediator using, for example, one of mPMS/DCIP (1-methoxy-5-methylphenazinium methylsulfate/2,6-dichloroindophenol), cPES (trifluoro-acetate-1-(3-carboxy-propoxy)-5-ethyl-phenanzinium, NA BM31—1144 (N,N-bis-(hydroxyethyl)-3-methoxynitrosoaniline hydrochloride, NA BM31—1008 (N,N-bis-hydroxyethyl-4-nitrosoaniline) and N—N-4-dimethyl-nitrosoaniline.
# (§2) As used herein in the context of the relative or quantitative activity, the dehydrogenase activity is specifically defined to be the mole amount of the substrate (fructosyl amino acid) oxidized per unit time measured by the amount of electrons transferred to the mediator at 25° C. in 10 mM PPB (pH 7.0), 0.6 mM DCIP, and 6 mM methoxy PMS (mPMS).
# (§3) Escherichia coli BL21 (DE3) cells harboring expression vectors of N1-1 FAOD (SEQ ID NO: 2) mutants were grown in 150 ml of LB medium containing 50 μg/ml kanamycin at 37° C. […] The formation of quinoneimine dye was measured spectrophotometrically at 546 nm. […]
# [2] = biological target: T2, fructosyl amino acid oxidase from Pichia sp. N1-1 (N1-1 FAOD, SEQ ID NO: 2) variant N47A (Pichia sp. N1-1, UniProt Q3L8U0, N47A); test: Dehydrogenase activity kinetics (mPMS/DCIP), N1-1 FAOD N47A mutant; format: biochemical; details: mPMS/DCIP over 4AA/TODB/POD
# T2 construct: crude and purified
# T2 sequence (Q3L8U0 1-427 N47A): T1 sequence (Q3L8U0 1-427) with N47A
# Text: as §1, §2, §3
structure (smiles),measurement,setting,value
"CC(C)[C@H](NCC1(O)OC[C@@H](O)[C@@H](O)[C@@H]1O)C(=O)O (stereo partly shown) [f-αVal, fructosyl valine]",B/A (Vmax dehydrogenase/Vmax oxidase),[1]; crude preparation,1.2
same,B/A (Vmax dehydrogenase/Vmax oxidase),[1]; purified enzyme,1.1
same,B/A (Vmax dehydrogenase/Vmax oxidase),[2]; crude preparation,7.5
same,B/A (Vmax dehydrogenase/Vmax oxidase),[2]; purified enzyme,4.3
